According to ChEMBL document CHEMBL3797133, “Structure-Based Design of an Iminoheterocyclic β-Site Amyloid Precursor Protein Cleaving Enzyme (BACE) Inhibitor that Lowers Central Aβ in Nonhuman Primates” (J Med Chem, 2016):

How the values were obtained:
in vivo [1] = conditions: rat, brain homogenate, po, 10 mg/kg
in vivo [2] = conditions: rat, brain/plasma, po, 10 mg/kg

COc1nc(N2C[C@H]3C(=O)N(C)C(N)=N[C@@]3(c3c(F)ccc(F)c3F)C2)nc(C)c1F
concentration at 6 h (in vivo [1]): 88 nM | Kp at 6 h (in vivo [2]): 0.4
